Laboratory results reported in PubChem BioAssay (NCI).
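A five-concentration, 48-hour dose response in 96-well plates underlies each endpoint, interpolated linearly between surrounding concentrations. The concentration for 50% growth inhibition is given as GI50. At the TGI there is no net growth.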

Columns and labels:
Test in all cases: growth of human tumour cells (NCI), 48 h
U251 CNS = system: U251 CNS
HCT-116 colon = system: HCT-116 colon
SF-539 CNS = system: SF-539 CNS
HCC-2998 colon = system: HCC-2998 colon
NCI-H460 lung = system: NCI-H460 lung
SW-620 colon = system: SW-620 colon
SF-295 CNS = system: SF-295 CNS
HL-60(TB) leukemia = system: HL-60(TB) leukemia
TK-10 renal = system: TK-10 renal
OVCAR-5 ovarian = system: OVCAR-5 ovarian

| Compound | GI50 (U251 CNS) | TGI (U251 CNS) | GI50 (HCT-116 colon) | TGI (HCT-116 colon) | GI50 (SF-539 CNS) | TGI (SF-539 CNS) | GI50 (HCC-2998 colon) | TGI (HCC-2998 colon) | GI50 (NCI-H460 lung) | TGI (NCI-H460 lung) | GI50 (SW-620 colon) | TGI (SW-620 colon) | GI50 (SF-295 CNS) | TGI (SF-295 CNS) | GI50 (HL-60(TB) leukemia) | TGI (HL-60(TB) leukemia) | GI50 (TK-10 renal) | TGI (TK-10 renal) | GI50 (OVCAR-5 ovarian) | TGI (OVCAR-5 ovarian) |
| --- | --- | --- | --- | --- | --- | --- | --- | --- | --- | --- | --- | --- | --- | --- | --- | --- | --- | --- | --- | --- |
| COC1=C(OC)C(=O)C(/C=C(\C)C(=O)O)=C(C)C1=O | > 100 µM | > 100 µM | > 100 µM | > 100 µM | > 100 µM | > 100 µM | > 100 µM | > 100 µM | > 100 µM | > 100 µM | > 100 µM | > 100 µM | > 100 µM | > 100 µM | > 100 µM | > 100 µM | > 100 µM | > 100 µM | > 100 µM | > 100 µM |
| COc1ccc2c(=O)c([Se]c3coc4cc(OC)ccc4c3=O)coc2c1 | – | > 100 µM | – | 44.1 µM | – | > 100 µM | – | > 100 µM | – | > 100 µM | – | > 100 µM | – | > 100 µM | – | > 100 µM | – | > 100 µM | – | > 100 µM |
| Nc1ccc2c(c1)C(=O)c1ccc(F)cc1-2 | – | > 100 µM | – | > 100 µM | – | > 100 µM | – | > 100 µM | – | > 100 µM | – | > 100 µM | – | > 100 µM | – | > 100 µM | – | > 100 µM | – | > 100 µM |
| CN(C)CCNC(=O)c1cccc2nc3ccc4ccccc4c3nc12 | – | 0.665 µM | – | 0.205 µM | – | 0.271 µM | – | 0.282 µM | – | 0.135 µM | – | 0.313 µM | – | 0.53 µM | – | 0.494 µM | – | 0.574 µM | – | 0.55 µM |
| O=c1[nH]c(=S)[nH]c2c1sc(=S)n2-c1ccccc1 | – | > 100 µM | – | > 100 µM | – | > 100 µM | – | > 100 µM | – | > 100 µM | – | > 100 µM | – | > 100 µM | – | > 100 µM | – | > 100 µM | – | > 100 µM |
| CCCCCCN(CCCCCC)CCCNc1nccc2ccccc12 | 1.54 µM | 2.96 µM | 0.832 µM | 2.2 µM | 1.94 µM | 3.59 µM | 1.98 µM | 3.75 µM | 1.4 µM | 2.88 µM | 1.29 µM | 2.96 µM | 0.951 µM | 2.24 µM | 1.77 µM | 4.26 µM | 1.47 µM | 3.02 µM | 1.63 µM | 4.3 µM |
| CC(=O)CC(=O)CCCC(=O)Nc1ccc(Cl)cc1C | – | > 100 µM | – | > 100 µM | – | > 100 µM | – | > 100 µM | – | > 100 µM | – | > 100 µM | – | > 100 µM | – | > 100 µM | – | > 100 µM | – | > 100 µM |
| OC(c1ccccc1)(c1ccccc1)c1ccccn1 | – | > 100 µM | – | > 100 µM | – | > 100 µM | – | > 100 µM | – | > 100 µM | – | > 100 µM | – | > 100 µM | – | > 100 µM | – | > 100 µM | – | > 100 µM |
| O=C(Oc1cccnc1)c1ccccc1Nc1ccnc(C(F)(F)F)c1 | 0.33 µM | > 96.2 µM | 0.0342 µM | – | 0.0428 µM | > 100 µM | 0.363 µM | 15.1 µM | 0.342 µM | > 35 µM | 0.0498 µM | > 100 µM | 0.257 µM | 0.707 µM | 43.3 µM | > 100 µM | 0.369 µM | 31.8 µM | 0.63 µM | > 95.9 µM |
| C[N+](C)(C)CCOP(=O)(O)OP(=O)([O-])OCC1CCC(n2ccc(N)nc2=O)O1 (stereo not drawn) | – | > 100 µM | – | > 100 µM | – | > 100 µM | – | > 100 µM | – | > 100 µM | – | > 100 µM | – | > 100 µM | – | > 100 µM | – | > 100 µM | – | > 100 µM |
| O=C1C2=C(C(=O)c3c(O)ccc(O)c31)N(c1ccc(N3CCOCC3)nc1)Cc1ccccc1O2 | 0.603 µM | 2.21 µM | 0.0966 µM | 0.332 µM | 0.276 µM | 0.944 µM | 1.56 µM | 2.99 µM | 1.31 µM | 4.06 µM | 0.152 µM | 0.5 µM | 2.01 µM | 4.63 µM | 0.17 µM | 0.616 µM | 0.339 µM | 0.947 µM | 0.777 µM | 2.3 µM |
| COC(=O)CCC(NC(=S)N/N=C(\C)c1ccccn1)C(=O)OC (stereo not drawn) | – | > 100 µM | – | > 100 µM | – | > 100 µM | – | > 100 µM | – | > 100 µM | – | > 100 µM | – | > 100 µM | – | 53.1 µM | – | > 100 µM | – | > 100 µM |
| CCOC(=O)C1=C(Nc2ccccc2)OC/C1=N\NC(=O)Cc1ccccc1 | – | > 50 µM | – | > 50 µM | – | > 50 µM | – | > 50 µM | – | > 50 µM | – | > 50 µM | – | > 50 µM | – | > 50 µM | – | > 50 µM | – | > 50 µM |
| O=C(CCc1nnc2s/c(=C\c3ccccc3)c(=O)n12)Nc1cc(Cl)ccc1Cl | – | > 100 µM | – | 66.9 µM | – | > 100 µM | – | > 100 µM | – | > 100 µM | – | 23.7 µM | – | > 100 µM | – | > 100 µM | – | > 100 µM | – | > 100 µM |
| c1cncc(CNc2ccccc2-c2nnc(Nc3ccc4c(c3)OCO4)o2)c1 | 0.0452 µM | > 42.8 µM | 0.0516 µM | > 100 µM | 0.0815 µM | 0.539 µM | 0.113 µM | – | 0.0435 µM | > 100 µM | 0.0413 µM | > 100 µM | 0.0528 µM | > 100 µM | 0.0259 µM | 0.147 µM | 1.18 µM | > 46.8 µM | 0.347 µM | > 100 µM |
| O=C(N[C@H](c1ccc(Cl)c(Cl)c1)C1CNC1)c1ccc2cnccc2c1 | 4.62 µM | 17.8 µM | 3.23 µM | 13.2 µM | 1.71 µM | 11.3 µM | 2.06 µM | 6.06 µM | 2.68 µM | 15.4 µM | 2.57 µM | 15.2 µM | 3.04 µM | 14.5 µM | 2.83 µM | 12.8 µM | 1.73 µM | 10.7 µM | 2.94 µM | 16.7 µM |
| O=C(c1cc2ccccc2[nH]1)C(O)(c1cc2ccccc2[nH]1)c1cc2ccccc2[nH]1 | – | > 246 µM | – | > 246 µM | – | > 246 µM | – | > 246 µM | – | > 246 µM | – | > 246 µM | – | > 246 µM | – | > 246 µM | – | > 246 µM | – | > 246 µM |
